These are literature values, as cited in patent US20090093865A1, “METHOD AND SYSTEM FOR CONTROLLING THE SPREAD OF MICROORGANISMS AMONG SUBJECTS IN A GROUP” (priority 2006, published 2009).

The test system of the data set is methicillin-resistant Staphylococcus aureus. Particulars: randomized controlled trial of mupirocin versus placebo (Harbarth et al. 1999).

Structures are written as SMILES.

Consider `C/C(=C\C(=O)OCCCCCCCCC(=O)O)C[C@@H]1OC[C@H](C[C@@H]2O[C@H]2[C@@H](C)[C@H](C)O)[C@@H](O)[C@H]1O` [mupirocin], for which the “carriers in whom methicillin-resistant S. aureus was successfully eradicated” value is given as 44%.
